Among the data in article PMC8880564, “Design, Synthesis, and Biological Evaluation of a Novel VEGFR-2 Inhibitor Based on a 1,2,5-Oxadiazole-2-Oxide Scaffold with MAPK Signaling Pathway Inhibition” (Pharmaceuticals, 2022) are activity values, retold here.

Assay in all cases: NCI-60 one-dose SRB screening
What all share (assay type): cell-based

One test has as its system MDA-MB-468. Particulars: Homo sapiens, MDA-MB-468, Breast Cancer, 10 µM one dose, 48 h, read-out: growth percentage.
Another test relates to HCC-2998. Particulars: Homo sapiens, HCC-2998, Colon Cancer, 10 µM one dose, 48 h, read-out: growth percentage.
A further test concerns NCI/ADR-RES. Particulars: Homo sapiens, Ovarian Cancer, 10 µM one dose, 48 h, read-out: growth percentage.
The subject of the next test is COLO 205. Particulars: Homo sapiens, COLO 205, Colon Cancer, 10 µM one dose, 48 h, read-out: growth percentage.
Another test concerns RPMI-8226. Particulars: Homo sapiens, RPMI-8226, Leukemia, 10 µM one dose, 48 h, read-out: growth percentage.
The test system of a further test is EKVX. Particulars: Homo sapiens, Non-Small Cell Lung Cancer, 10 µM one dose, 48 h, read-out: growth percentage.
A further test deals with HOP-62. Particulars: Homo sapiens, HOP-62, Non-Small Cell Lung Cancer, 10 µM one dose, 48 h, read-out: growth percentage.
The test system of a further test is SF-295. Particulars: Homo sapiens, SF-295, CNS Cancer, 10 µM one dose, 48 h, read-out: growth percentage.
Another test relates to BT-549. Particulars: Homo sapiens, BT-549, Breast Cancer, 10 µM one dose, 48 h, read-out: growth percentage.
Another test concerns SN12C. Particulars: Homo sapiens, Renal Cancer, 10 µM one dose, 48 h, read-out: growth percentage.
The next test relates to UACC-257. Particulars: Homo sapiens, UACC-257, Melanoma, 10 µM one dose, 48 h, read-out: growth percentage.
In a further test the test system is HT29. Particulars: Homo sapiens, HT-29, HT29, Colon Cancer, 10 µM one dose, 48 h, read-out: growth percentage.
The subject of a further test is SK-MEL-2. Particulars: Homo sapiens, SK-MEL-2, Melanoma, 10 µM one dose, 48 h, read-out: growth percentage.
The next test concerns SK-OV-3. Particulars: Homo sapiens, SK-OV-3, Ovarian Cancer, 10 µM one dose, 48 h, read-out: growth percentage.
Another test relates to CCRF-CEM. Particulars: Homo sapiens, Leukemia, 10 µM one dose, 48 h, read-out: growth percentage.
The test system of a further test is MCF7. Particulars: Homo sapiens, MCF7, Breast Cancer, 10 µM one dose, 48 h, read-out: growth percentage.
For another test, the system named is SF-539. Particulars: Homo sapiens, SF-539, CNS Cancer, 10 µM one dose, 48 h, read-out: growth percentage.
The subject of the next test is SW-620. Particulars: Homo sapiens, SW-620, Colon Cancer, 10 µM one dose, 48 h, read-out: growth percentage.
Another test concerns ACHN. Particulars: Homo sapiens, Renal Cancer, 10 µM one dose, 48 h, read-out: growth percentage.
In a further test the test system is OVCAR-4. Particulars: Homo sapiens, OVCAR-4, Ovarian Cancer, 10 µM one dose, 48 h, read-out: growth percentage.
For a further test, the system named is SNB-19. Particulars: Homo sapiens, SNB-19, CNS Cancer, 10 µM one dose, 48 h, read-out: growth percentage.
In the next test the test system is NCI-H322M. Particulars: Homo sapiens, Non-Small Cell Lung Cancer, 10 µM one dose, 48 h, read-out: growth percentage.
The subject of a further test is PC-3. Particulars: Homo sapiens, PC-3, Prostate Cancer, 10 µM one dose, 48 h, read-out: growth percentage.

As for `Cc1nn(-c2ccccc2)c2ncnc(Nc3ccc(OCc4c(-c5ccccc5)no[n+]4[O-])cc3)c12` [6c, 3-((4-((3-methyl-1-phenyl-1H-pyrazolo[3,4-d]pyrimidin-4-yl)amino)phenoxy)methyl)-4-phenyl-1,2,5-oxadiazole 2-oxide], the activity at 10 µM in the test with MDA-MB-468 was 97.1%; in the test on HCC-2998, 106%; in the test with NCI/ADR-RES it was 91.7%; in the test on COLO 205, 116%; in the test on RPMI-8226 it was 94%; in the test on EKVX it was 90.4%. Besides, the activity at 10 µM is 105% in the test with HOP-62; 99% in the test on SF-295; 101% with BT-549; 87.9% with SN12C; 105% in the test on UACC-257; 93.2% with HT29. Also, the activity at 10 µM in the test on SK-MEL-2 is 103%; in the test with SK-OV-3, 104%; in the test on CCRF-CEM it was 97.4%; with MCF7 it was 83%; with SF-539, 96.2%; in the test with SW-620, 107%. Further, the activity at 10 µM came out at 97.3% in the test on ACHN; 90.6% in the test with OVCAR-4; 101% with SNB-19; 91% in the test with NCI-H322M; 83.5% in the test on PC-3.

`Cc1nc(Nc2ccc(OCc3c(-c4ccccc4)no[n+]3[O-])cc2)c2c(C)nn(-c3ccccc3)c2n1` [6d, 3-((4-((3,6-dimethyl-1-phenyl-1H-pyrazolo[3,4-d]pyrimidin-4-yl)amino)phenoxy)methyl)-4-phenyl-1,2,5-oxadiazole 2-oxide]: the activity at 10 µM was 107% in the test on MDA-MB-468; 107% in the test with HCC-2998; 102% with NCI/ADR-RES; 107% with COLO 205; 106% in the test on RPMI-8226; 102% in the test with EKVX. In addition, the activity at 10 µM in the test with HOP-62 came out at 107%; in the test with SF-295, 108%; in the test on BT-549, 102%; in the test with SN12C, 98.4%; in the test with UACC-257, 109%; in the test on HT29, 119%. For the same molecule, the activity at 10 µM was found to be 121% with SK-MEL-2; 109% with SK-OV-3; 113% with CCRF-CEM; 95.4% with MCF7; 99.8% in the test on SF-539; 119% with SW-620. The activity at 10 µM in the test on ACHN was 95.5%; with OVCAR-4, 103%; in the test with SNB-19 it was 99.6%; with NCI-H322M it was 99.9%; in the test on PC-3, 99%.

Regarding `[O-][n+]1onc(-c2ccccc2)c1COc1ccc(Nc2ncnc3c2cnn3-c2ccc(Br)cc2)cc1` [6e, 3-((4-((1-(4-bromophenyl)-1H-pyrazolo[3,4-d]pyrimidin-4-yl)amino)phenoxy)methyl)-4-phenyl-1,2,5-oxadiazole 2-oxide], the activity at 10 µM with MDA-MB-468 is 106%; with HCC-2998, 106%; with NCI/ADR-RES it was 107%; with COLO 205, 105%; with RPMI-8226, 111%; with EKVX, 96.3%. For the same molecule, the activity at 10 µM was determined as 105% in the test on HOP-62; 101% with SF-295; 95.8% in the test with BT-549; 96.4% with SN12C; 104% in the test on UACC-257; 94.5% with HT29. For the same molecule, the activity at 10 µM in the test with SK-MEL-2 came to 99.2%; in the test with SK-OV-3, 104%; in the test on CCRF-CEM it was 108%; with MCF7, 87.9%; in the test on SF-539, 98.4%; in the test with SW-620, 115%. The activity at 10 µM with ACHN was 103%; in the test with OVCAR-4, 100%; in the test on SNB-19, 103%; with NCI-H322M, 97.9%; in the test with PC-3 it was 97%.

With `Cc1nc(Nc2ccc(OCc3c(-c4ccccc4)no[n+]3[O-])cc2)c2cnn(-c3ccc(Br)cc3)c2n1` [6f, 3-((4-((1-(4-bromophenyl)-6-methyl-1H-pyrazolo[3,4-d]pyrimidin-4-yl)amino)phenoxy)methyl)-4-phenyl-1,2,5-oxadiazole 2-oxide], the activity at 10 µM came to 111% with MDA-MB-468; 104% with HCC-2998; 106% in the test with NCI/ADR-RES; 119% with COLO 205; 115% in the test on RPMI-8226; 91.4% with EKVX. Besides, the activity at 10 µM came to 110% in the test on HOP-62; 102% in the test on SF-295; 94.5% in the test on BT-549; 94.8% in the test on SN12C; 101% in the test with UACC-257; 97.3% in the test on HT29. Moreover, the activity at 10 µM in the test on SK-MEL-2 was 114%; with SK-OV-3, 113%; in the test with CCRF-CEM, 104%; in the test on MCF7, 85.3%; with SF-539, 94.2%; in the test on SW-620, 109%. Also, the activity at 10 µM came to 101% in the test on ACHN; 99.5% in the test on OVCAR-4; 91.5% in the test on SNB-19; 90.8% with NCI-H322M; 103% in the test on PC-3.

Turning to `Cc1nn(-c2ccc(Br)cc2)c2ncnc(Nc3ccc(OCc4c(-c5ccccc5)no[n+]4[O-])cc3)c12` [6g, 3-((4-((1-(4-bromophenyl)-3-methyl-1H-pyrazolo[3,4-d]pyrimidin-4-yl)amino)phenoxy)methyl)-4-phenyl-1,2,5-oxadiazole 2-oxide], the activity at 10 µM was 97.4% with MDA-MB-468; 104% in the test with HCC-2998; 93.8% with NCI/ADR-RES; 117% in the test on COLO 205; 108% with RPMI-8226; 83.5% with EKVX. Further, the activity at 10 µM with HOP-62 was 94%; in the test with SF-295, 87.6%; in the test on BT-549, 104%; in the test on SN12C it was 91.3%; in the test on UACC-257, 97.1%; with HT29 it was 101%. The activity at 10 µM in the test with SK-MEL-2 amounted to 101%; with SK-OV-3, 96.2%; in the test on CCRF-CEM, 98.1%; in the test on MCF7, 89%; in the test with SF-539 it was 90.4%; with SW-620, 107%. In addition, the activity at 10 µM stood at 88% in the test with ACHN; 95.7% with OVCAR-4; 99.2% in the test with SNB-19; 94.5% in the test with NCI-H322M; 90.9% in the test on PC-3.
